In PubChem BioAssay (NCI):
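Results reflect a 48-hour exposure of cells in 96-well plates to compound at five concentrations. GI50: concentration for 50% inhibition of growth. TGI: concentration producing complete growth inhibition.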

Assays:
Assay in all cases: NCI tumour cell line growth inhibition, 48 h
OVCAR-3 ovarian = tested on: OVCAR-3 ovarian
UO-31 renal = tested on: UO-31 renal
MALME-3M melanoma = tested on: MALME-3M melanoma
RXF 393 renal = tested on: RXF 393 renal
UACC-257 melanoma = tested on: UACC-257 melanoma
MDA-MB-435 = tested on: MDA-MB-435
SK-MEL-5 melanoma = tested on: SK-MEL-5 melanoma
OVCAR-8 ovarian = tested on: OVCAR-8 ovarian
A549 NSCLC = tested on: A549 NSCLC
HCT-116 colon = tested on: HCT-116 colon

Row | Compound | GI50 (OVCAR-3 ovarian) | TGI (OVCAR-3 ovarian) | GI50 (UO-31 renal) | TGI (UO-31 renal) | GI50 (MALME-3M melanoma) | TGI (MALME-3M melanoma) | GI50 (RXF 393 renal) | TGI (RXF 393 renal) | GI50 (UACC-257 melanoma) | TGI (UACC-257 melanoma) | GI50 (MDA-MB-435) | TGI (MDA-MB-435) | GI50 (SK-MEL-5 melanoma) | TGI (SK-MEL-5 melanoma) | GI50 (OVCAR-8 ovarian) | TGI (OVCAR-8 ovarian) | GI50 (A549 NSCLC) | TGI (A549 NSCLC) | GI50 (HCT-116 colon) | TGI (HCT-116 colon)
1 | CO/N=C(\COc1ccc2c(=O)c3ccccc3oc2c1)c1ccccc1 | 27.4 µM | 79.3 µM | 24.2 µM | 63 µM | 19.1 µM | 48.3 µM | 39 µM | > 100 µM | 39.1 µM | > 100 µM | 86.7 µM | > 100 µM | 38.1 µM | > 100 µM | 30.4 µM | 97.2 µM | 35.2 µM | 99.4 µM | 68.6 µM | > 100 µM
2 | C[C@H]1[C@H](C)N1CC(O)Cn1ccnc1[N+](=O)[O-] (stereo not given in full) | – | > 100 µM | – | > 100 µM | – | > 100 µM | – | > 100 µM | – | > 100 µM | – | > 100 µM | – | > 100 µM | – | > 100 µM | – | > 100 µM | – | > 100 µM
3 | COC(=O)c1c2c(c(C)[n+]([O-])c1C)C(=O)C=C(NCc1ccccc1)C2=O | 0.277 µM | 0.791 µM | 1.35 µM | 2.65 µM | 0.147 µM | 0.353 µM | 1.23 µM | 2.73 µM | 0.261 µM | 0.962 µM | 0.202 µM | 0.391 µM | 0.206 µM | 0.48 µM | 0.408 µM | 2.16 µM | 1.1 µM | 3.46 µM | 0.303 µM | 1.05 µM
4 | CN(C)c1ccc(Nc2c3ccccc3nc3ccccc23)cc1 | 1.22 µM | 3.22 µM | 0.359 µM | 1.87 µM | 1.2 µM | 3.03 µM | 1.21 µM | 2.61 µM | 0.987 µM | 2.65 µM | 0.685 µM | 2.33 µM | 1.03 µM | 2.2 µM | 0.868 µM | 3.25 µM | 0.425 µM | 1.9 µM | 0.38 µM | 1.7 µM
5 | CCC(=O)N1C/C(=C/c2ccc(Cl)cc2)C(=O)/C(=C/c2ccc(Cl)cc2)C1 | 0.622 µM | 1.75 µM | 1.15 µM | 2.5 µM | 2.06 µM | 4.08 µM | 0.723 µM | 2.08 µM | 1.64 µM | 3.24 µM | 0.403 µM | 1.64 µM | 1.46 µM | 2.81 µM | 0.451 µM | 2.12 µM | 0.868 µM | 4.14 µM | 0.179 µM | 0.435 µM
6 | O=[N+]([O-])c1cccc(/C=N/NC2=CS(=O)(=O)C=C2)c1 | – | > 100 µM | – | > 100 µM | – | > 100 µM | – | > 100 µM | – | > 100 µM | – | > 100 µM | – | > 100 µM | – | > 100 µM | – | > 100 µM | – | > 100 µM
7 | CCOC(=O)N1C/C(=C\c2ccccc2)C(=O)/C(=C/c2ccccc2)C1 | – | 14.5 µM | – | 12.4 µM | – | 16.9 µM | – | 10.3 µM | – | 12.5 µM | – | 5.8 µM | – | 6.2 µM | – | 9.51 µM | – | 54.3 µM | – | 2.75 µM
8 | COc1ccc2c(c1)nc(NNC(=O)c1cnccn1)c1cccn12 | 0.186 µM | 3.82 µM | 0.0848 µM | 1.51 µM | 1.06 µM | 2.93 µM | 0.689 µM | 2.47 µM | 0.756 µM | 4.42 µM | 0.338 µM | 2.59 µM | 0.27 µM | 1.22 µM | 0.229 µM | 3.05 µM | 0.298 µM | 3.45 µM | 0.143 µM | 2.71 µM
9 | OCCCCC#Cc1ccccc1C#Cc1ccc(O)cc1 | 14.8 µM | 30.4 µM | 13.2 µM | 26.7 µM | 20.9 µM | 43 µM | 0.622 µM | 22.4 µM | 18.5 µM | 33.9 µM | 16.1 µM | 31 µM | 17.7 µM | 32.2 µM | 17.1 µM | 34.9 µM | 15.8 µM | 30.8 µM | 16.6 µM | 31.8 µM
10 | COC(C)(C)[C@@H](O)[C@H](O)C[C@H](C)C1=C2CC[C@@H]3[C@@]4(C)CC[C@@H](OC(C)=O)C(C)(C)[C@@H]4C[C@@H](OC4OC(COC(C)=O)C(O)C(O)C4O)[C@@]3(C)[C@]2(C)CC1 (stereo not given in full) | 7.37 µM | 21.1 µM | 13.6 µM | 26.9 µM | 15.2 µM | 29.4 µM | 6.96 µM | 19.5 µM | 12.6 µM | 25.4 µM | 12.3 µM | 25.6 µM | 14.4 µM | 27.8 µM | 12.8 µM | 26.3 µM | 7.77 µM | 20.3 µM | 6.09 µM | 19.2 µM
11 | Cc1ccc2nc3ccccc3c(NCc3ccc(Cl)cc3)c2c1 | 6.31 µM | 13 µM | 1.53 µM | 8.25 µM | 5.85 µM | 12.5 µM | 1.98 µM | 8.08 µM | 8.57 µM | 16.2 µM | 6.49 µM | 12.9 µM | 6 µM | 12.3 µM | 5.77 µM | 16.6 µM | 3.93 µM | 12.7 µM | 2.15 µM | 8.27 µM
12 | Cc1ccc(S(=O)(=O)Oc2ccc3c4c(c(=O)oc3c2)CCCCCC4)cc1 | > 100 µM | > 100 µM | 27.3 µM | > 100 µM | > 100 µM | > 100 µM | > 100 µM | > 100 µM | 8.7 µM | > 100 µM | > 100 µM | > 100 µM | 4.45 µM | > 100 µM | > 100 µM | > 100 µM | > 100 µM | > 100 µM | 8.04 µM | > 100 µM
13 | CNC(=O)NCC1OC(n2cnc3c(NC(=O)Nc4ccccc4)ncnc32)C(O[Si](C)(C)C(C)(C)C)C1O[Si](C)(C)C(C)(C)C (stereo not given) | 2.6 µM | 5.54 µM | 2.5 µM | 9.56 µM | 2.98 µM | 9.84 µM | 2.14 µM | 4.01 µM | 3.78 µM | 20.2 µM | 3.41 µM | 29.1 µM | 1.98 µM | 4.75 µM | 4.01 µM | 40.1 µM | 2.9 µM | 12.8 µM | 2.11 µM | 4.31 µM
